Assay results reported in ChEMBL document CHEMBL5678818, “Discovery of potent SOS1 inhibitors that block RAS activation via disruption of the RAS-SOS1 interaction” (Proc Natl Acad Sci U S A, 2019).

Key:
[1] = target: T1, Serine/threonine-protein kinase Chk1 (Homo sapiens) (UniProt O14757); experiment: Inhibition of CHEK1 (unknown origin) assessed as residual activity at 100 nM by KINOMEscan analysis relative to control
T1 sequence (whole entry): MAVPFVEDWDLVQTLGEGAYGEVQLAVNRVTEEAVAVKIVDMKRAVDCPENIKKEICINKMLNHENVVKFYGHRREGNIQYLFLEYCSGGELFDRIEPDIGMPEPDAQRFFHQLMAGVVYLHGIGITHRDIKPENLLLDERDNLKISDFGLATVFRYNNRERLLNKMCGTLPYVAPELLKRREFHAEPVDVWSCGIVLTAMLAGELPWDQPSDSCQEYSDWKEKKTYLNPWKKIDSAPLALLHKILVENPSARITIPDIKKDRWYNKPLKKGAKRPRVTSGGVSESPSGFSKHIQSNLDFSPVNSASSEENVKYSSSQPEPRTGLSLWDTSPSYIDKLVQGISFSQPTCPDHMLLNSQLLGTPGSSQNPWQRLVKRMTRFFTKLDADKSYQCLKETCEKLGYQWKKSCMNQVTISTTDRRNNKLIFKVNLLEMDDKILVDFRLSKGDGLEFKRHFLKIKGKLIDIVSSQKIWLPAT

[2] = target: Epidermal growth factor receptor (Homo sapiens, UniProt P00533); experiment: Inhibition of EGFR (unknown origin) assessed as residual activity at 100 nM by KINOMEscan analysis relative to control
Chain of Epidermal growth factor receptor (P00533 whole entry): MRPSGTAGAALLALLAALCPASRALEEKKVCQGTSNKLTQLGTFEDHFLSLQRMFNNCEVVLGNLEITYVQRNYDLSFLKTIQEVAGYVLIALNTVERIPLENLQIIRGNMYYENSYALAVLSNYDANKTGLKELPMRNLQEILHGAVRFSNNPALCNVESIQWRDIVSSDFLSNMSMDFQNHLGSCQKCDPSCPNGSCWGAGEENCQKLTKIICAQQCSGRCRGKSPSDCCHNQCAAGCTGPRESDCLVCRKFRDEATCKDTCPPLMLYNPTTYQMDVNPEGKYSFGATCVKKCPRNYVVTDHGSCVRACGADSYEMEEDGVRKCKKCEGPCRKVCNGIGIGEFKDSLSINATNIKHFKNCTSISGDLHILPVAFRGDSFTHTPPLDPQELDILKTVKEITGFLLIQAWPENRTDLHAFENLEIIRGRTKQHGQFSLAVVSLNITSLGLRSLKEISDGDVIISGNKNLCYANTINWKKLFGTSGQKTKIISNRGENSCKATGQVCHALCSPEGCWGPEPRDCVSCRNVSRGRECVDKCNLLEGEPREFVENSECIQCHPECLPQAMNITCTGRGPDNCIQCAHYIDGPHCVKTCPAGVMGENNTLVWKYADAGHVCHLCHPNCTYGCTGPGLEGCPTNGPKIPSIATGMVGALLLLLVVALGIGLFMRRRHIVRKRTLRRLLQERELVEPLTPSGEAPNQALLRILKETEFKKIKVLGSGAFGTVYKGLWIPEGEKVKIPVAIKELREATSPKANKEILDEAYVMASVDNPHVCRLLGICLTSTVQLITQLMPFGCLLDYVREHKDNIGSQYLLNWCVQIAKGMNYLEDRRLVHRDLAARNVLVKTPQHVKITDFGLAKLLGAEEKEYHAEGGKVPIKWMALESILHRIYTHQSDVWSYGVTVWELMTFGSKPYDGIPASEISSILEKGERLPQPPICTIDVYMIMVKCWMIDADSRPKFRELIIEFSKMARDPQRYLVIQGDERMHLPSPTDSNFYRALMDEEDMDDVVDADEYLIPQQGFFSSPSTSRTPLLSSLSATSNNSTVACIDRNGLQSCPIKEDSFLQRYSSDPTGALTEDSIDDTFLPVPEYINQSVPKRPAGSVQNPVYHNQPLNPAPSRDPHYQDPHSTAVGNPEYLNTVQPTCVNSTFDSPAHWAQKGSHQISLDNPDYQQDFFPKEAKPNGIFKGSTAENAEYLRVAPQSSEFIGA

[3] = target: T2, MAP kinase-activated protein kinase 5 (Homo sapiens) (UniProt Q8IW41); experiment: Inhibition of MAPKAPK5 (unknown origin) assessed as residual activity at 100 nM by KINOMEscan analysis relative to control
T2 sequence (whole entry): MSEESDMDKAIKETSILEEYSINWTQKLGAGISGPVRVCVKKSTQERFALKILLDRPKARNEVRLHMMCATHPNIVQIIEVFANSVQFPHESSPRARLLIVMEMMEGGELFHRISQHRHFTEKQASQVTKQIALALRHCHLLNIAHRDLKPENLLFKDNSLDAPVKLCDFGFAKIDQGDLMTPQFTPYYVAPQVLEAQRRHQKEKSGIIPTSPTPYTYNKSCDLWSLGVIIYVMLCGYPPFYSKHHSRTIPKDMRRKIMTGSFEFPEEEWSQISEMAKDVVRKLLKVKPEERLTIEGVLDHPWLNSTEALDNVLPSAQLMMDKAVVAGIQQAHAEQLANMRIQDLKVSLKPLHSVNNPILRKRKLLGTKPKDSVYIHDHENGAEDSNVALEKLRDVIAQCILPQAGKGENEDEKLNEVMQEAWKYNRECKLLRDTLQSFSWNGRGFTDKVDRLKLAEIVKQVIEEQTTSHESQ

[4] = target: T3, Phosphatidylinositol 5-phosphate 4-kinase type-2 gamma (Homo sapiens) (UniProt Q8TBX8); experiment: Inhibition of PIP5K2C (unknown origin) assessed as residual activity at 100 nM by KINOMEscan analysis relative to control
T3 sequence (whole entry): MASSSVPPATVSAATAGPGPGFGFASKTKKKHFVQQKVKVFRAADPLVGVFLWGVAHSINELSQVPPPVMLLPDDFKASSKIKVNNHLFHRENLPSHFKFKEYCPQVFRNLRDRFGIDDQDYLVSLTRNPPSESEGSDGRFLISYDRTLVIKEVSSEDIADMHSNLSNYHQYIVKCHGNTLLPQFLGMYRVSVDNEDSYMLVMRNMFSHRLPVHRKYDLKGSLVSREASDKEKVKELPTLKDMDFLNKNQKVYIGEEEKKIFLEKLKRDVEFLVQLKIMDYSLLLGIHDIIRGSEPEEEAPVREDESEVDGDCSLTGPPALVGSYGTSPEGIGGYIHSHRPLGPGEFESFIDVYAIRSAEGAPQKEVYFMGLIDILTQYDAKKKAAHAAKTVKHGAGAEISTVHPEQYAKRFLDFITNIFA

[5] = target: Dual specificity testis-specific protein kinase 1 (Homo sapiens) (UniProt Q15569); experiment: Inhibition of TESK1 (unknown origin) assessed as residual activity at 100 nM by KINOMEscan analysis relative to control
Chain of Dual specificity testis-specific protein kinase 1 (Homo sapiens) (Q15569 whole entry, looked up): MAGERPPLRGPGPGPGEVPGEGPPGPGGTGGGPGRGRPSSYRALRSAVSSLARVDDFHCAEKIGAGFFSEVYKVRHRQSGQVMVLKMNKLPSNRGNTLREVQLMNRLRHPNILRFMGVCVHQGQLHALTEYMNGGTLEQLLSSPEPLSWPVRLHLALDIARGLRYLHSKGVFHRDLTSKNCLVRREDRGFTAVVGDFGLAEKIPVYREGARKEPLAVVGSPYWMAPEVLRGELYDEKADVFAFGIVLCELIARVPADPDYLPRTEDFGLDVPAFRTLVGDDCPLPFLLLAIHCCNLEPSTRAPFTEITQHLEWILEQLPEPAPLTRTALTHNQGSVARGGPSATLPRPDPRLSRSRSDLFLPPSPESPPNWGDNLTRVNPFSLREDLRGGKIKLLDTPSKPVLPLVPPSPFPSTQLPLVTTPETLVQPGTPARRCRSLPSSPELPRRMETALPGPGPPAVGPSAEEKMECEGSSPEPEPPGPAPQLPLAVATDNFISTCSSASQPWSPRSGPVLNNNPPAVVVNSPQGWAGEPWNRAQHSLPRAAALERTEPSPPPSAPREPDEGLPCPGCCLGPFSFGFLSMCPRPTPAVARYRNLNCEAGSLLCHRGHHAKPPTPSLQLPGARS

[6] = target: Leucine-rich repeat serine/threonine-protein kinase 2 (Homo sapiens) (UniProt Q5S007); experiment: Inhibition of LRRK2 (unknown origin) assessed as residual activity at 100 nM by KINOMEscan analysis relative to control
Chain of Leucine-rich repeat serine/threonine-protein kinase 2 (Homo sapiens) (Q5S007 whole entry, canonical isoform): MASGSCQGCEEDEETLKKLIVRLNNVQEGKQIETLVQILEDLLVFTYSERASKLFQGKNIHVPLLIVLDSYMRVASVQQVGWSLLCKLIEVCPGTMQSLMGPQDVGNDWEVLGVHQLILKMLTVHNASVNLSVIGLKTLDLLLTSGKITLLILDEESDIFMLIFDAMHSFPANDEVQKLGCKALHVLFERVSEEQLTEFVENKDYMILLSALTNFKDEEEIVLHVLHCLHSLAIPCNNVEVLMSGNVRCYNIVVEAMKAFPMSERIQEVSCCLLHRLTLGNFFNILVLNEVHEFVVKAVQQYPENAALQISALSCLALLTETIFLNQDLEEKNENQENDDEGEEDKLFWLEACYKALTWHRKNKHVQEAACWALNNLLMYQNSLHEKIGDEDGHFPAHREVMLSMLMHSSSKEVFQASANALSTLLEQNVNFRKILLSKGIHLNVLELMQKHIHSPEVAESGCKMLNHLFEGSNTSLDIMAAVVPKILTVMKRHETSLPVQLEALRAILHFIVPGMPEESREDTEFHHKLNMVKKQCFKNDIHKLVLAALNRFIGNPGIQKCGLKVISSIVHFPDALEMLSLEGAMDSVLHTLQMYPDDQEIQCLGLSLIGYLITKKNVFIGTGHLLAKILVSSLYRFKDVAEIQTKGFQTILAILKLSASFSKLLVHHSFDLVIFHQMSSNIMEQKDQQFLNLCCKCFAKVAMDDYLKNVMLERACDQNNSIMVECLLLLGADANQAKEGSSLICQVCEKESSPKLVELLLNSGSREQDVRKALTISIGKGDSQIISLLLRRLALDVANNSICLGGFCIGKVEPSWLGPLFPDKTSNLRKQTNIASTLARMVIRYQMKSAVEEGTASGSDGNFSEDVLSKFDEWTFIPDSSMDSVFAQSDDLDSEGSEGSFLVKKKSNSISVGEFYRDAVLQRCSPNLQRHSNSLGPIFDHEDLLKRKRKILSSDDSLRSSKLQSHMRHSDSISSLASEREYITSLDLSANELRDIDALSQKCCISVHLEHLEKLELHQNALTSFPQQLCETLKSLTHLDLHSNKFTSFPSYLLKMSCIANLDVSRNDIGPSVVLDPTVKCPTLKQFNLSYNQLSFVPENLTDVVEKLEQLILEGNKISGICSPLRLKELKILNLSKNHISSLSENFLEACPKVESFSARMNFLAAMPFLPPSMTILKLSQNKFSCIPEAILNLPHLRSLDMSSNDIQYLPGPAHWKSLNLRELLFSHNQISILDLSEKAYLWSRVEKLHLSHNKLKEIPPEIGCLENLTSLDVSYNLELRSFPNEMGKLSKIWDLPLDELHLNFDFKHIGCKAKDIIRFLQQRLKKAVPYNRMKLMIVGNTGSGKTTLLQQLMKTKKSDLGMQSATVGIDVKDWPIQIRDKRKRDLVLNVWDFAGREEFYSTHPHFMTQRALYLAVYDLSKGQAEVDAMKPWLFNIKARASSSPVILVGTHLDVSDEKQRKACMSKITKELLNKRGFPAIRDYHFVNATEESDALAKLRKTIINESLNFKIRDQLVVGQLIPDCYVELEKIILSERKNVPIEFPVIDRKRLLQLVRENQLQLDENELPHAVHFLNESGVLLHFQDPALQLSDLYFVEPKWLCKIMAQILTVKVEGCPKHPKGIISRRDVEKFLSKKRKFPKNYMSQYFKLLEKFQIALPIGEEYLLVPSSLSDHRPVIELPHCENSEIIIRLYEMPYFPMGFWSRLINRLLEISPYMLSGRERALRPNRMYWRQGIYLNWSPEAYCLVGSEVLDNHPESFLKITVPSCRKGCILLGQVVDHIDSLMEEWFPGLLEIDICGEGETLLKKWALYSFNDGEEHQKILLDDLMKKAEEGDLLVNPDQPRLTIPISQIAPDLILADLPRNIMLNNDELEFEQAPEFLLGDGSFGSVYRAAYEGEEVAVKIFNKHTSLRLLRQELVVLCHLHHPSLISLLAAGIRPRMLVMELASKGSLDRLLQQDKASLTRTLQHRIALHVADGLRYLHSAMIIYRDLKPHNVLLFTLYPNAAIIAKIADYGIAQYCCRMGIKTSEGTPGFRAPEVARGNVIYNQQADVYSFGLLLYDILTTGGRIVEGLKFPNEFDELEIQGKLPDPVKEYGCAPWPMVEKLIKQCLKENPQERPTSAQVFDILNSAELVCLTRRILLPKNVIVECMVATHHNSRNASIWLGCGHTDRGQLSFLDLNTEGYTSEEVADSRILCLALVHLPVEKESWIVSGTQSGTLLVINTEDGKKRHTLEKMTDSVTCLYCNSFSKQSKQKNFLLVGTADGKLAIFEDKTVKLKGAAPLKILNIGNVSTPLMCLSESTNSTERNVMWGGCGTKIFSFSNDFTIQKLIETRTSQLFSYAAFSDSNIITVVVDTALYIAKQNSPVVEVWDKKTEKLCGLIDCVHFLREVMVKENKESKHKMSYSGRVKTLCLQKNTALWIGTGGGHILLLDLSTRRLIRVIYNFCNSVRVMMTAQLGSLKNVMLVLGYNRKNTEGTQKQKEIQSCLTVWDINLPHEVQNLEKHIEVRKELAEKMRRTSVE

[7] = system: Phosphatidylinositol 4,5-bisphosphate 3-kinase catalytic subunit alpha isoform (Homo sapiens), P42336 [Q546K]; experiment: Inhibition of PIK3CA Q546K mutant (unknown origin) assessed as residual activity at 100 nM by KINOMEscan analysis relative to control
[8] = target: Mitogen-activated protein kinase kinase kinase kinase 4 (Homo sapiens) (UniProt O95819); experiment: Inhibition of MAP4K4 (unknown origin) assessed as residual activity at 100 nM by KINOMEscan analysis relative to control
[9] = target: Dual specificity mitogen-activated protein kinase kinase 2 (Homo sapiens) (UniProt P36507); experiment: Inhibition of MEK2 (unknown origin) assessed as residual activity at 100 nM by KINOMEscan analysis relative to control
Chain of Dual specificity mitogen-activated protein kinase kinase 2 (Homo sapiens) (P36507 whole entry): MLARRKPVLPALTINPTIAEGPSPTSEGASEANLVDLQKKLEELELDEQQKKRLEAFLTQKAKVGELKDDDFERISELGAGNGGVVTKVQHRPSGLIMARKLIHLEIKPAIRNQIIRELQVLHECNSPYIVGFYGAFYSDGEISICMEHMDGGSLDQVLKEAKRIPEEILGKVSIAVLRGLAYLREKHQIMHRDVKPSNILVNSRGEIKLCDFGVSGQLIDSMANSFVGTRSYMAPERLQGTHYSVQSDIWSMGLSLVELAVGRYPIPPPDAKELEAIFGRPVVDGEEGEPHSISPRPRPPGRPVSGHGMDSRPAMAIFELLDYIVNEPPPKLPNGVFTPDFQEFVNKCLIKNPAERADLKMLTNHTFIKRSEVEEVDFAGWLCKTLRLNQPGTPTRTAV

[10] = target: Receptor tyrosine-protein kinase erbB-4 (Homo sapiens) (UniProt Q15303); experiment: Inhibition of ERBB4 (unknown origin) assessed as residual activity at 100 nM by KINOMEscan analysis relative to control
[11] = target: AP2-associated protein kinase 1 (Homo sapiens) (UniProt Q2M2I8); experiment: Inhibition of AAK1 (unknown origin) assessed as residual activity at 100 nM by KINOMEscan analysis relative to control
[12] = target: Serine/threonine-protein kinase WNK4 (Homo sapiens) (UniProt Q96J92); experiment: Inhibition of WNK4 (unknown origin) assessed as residual activity at 1000 nM by KINOMEscan analysis relative to control

| Structure (SMILES) | Activity [1] [%] | Activity [2] [%] | Activity [3] [%] | Activity [4] [%] | Activity [5] [%] | Activity [6] [%] | Activity [7] [%] | Activity [8] [%] | Activity [9] [%] | Activity [10] [%] | Activity [11] [%] | Activity [12] [%] |
| --- | --- | --- | --- | --- | --- | --- | --- | --- | --- | --- | --- | --- |
| COc1cc2ncnc(N[C@H](C)c3cccc4ccccc34)c2cc1OC | 100 | 93 | 94 | 96 | 73 | 82 | 70 | 65 | 90 | 100 | 74 |  |
| COc1cc2nc(C)nc(N[C@H](C)c3cccc(-c4cn[nH]c4)c3)c2cc1OC |  |  |  |  |  |  |  |  |  |  |  | 100 |
